Experimental data: patent publication US20170066717A1, “NEW PHENYLAZETIDINECARBOXYLATE OR -CARBOXAMIDE COMPOUNDS” (INVENTIVA, priority 2014, published 2017)
Counter-ions that a name gives are not always drawn.

Assays:
[1] = target: T1, NURR-1/RXRα (Homo sapiens, UniProt P19793); test: Transactivation test, NURR-1-Gal4/RXRα, luciferase reporter in Cos-7 cells; type: cell-based; settings: for Emax: COS-7, induction level relative to reference XCT0135908 at 2×10^−5 M (=100%), read-out: hNurr1_RXRaFL Emax (%); for EC50: Cos-7 cells, NURR-1-Gal4/RXRα, luciferase reporter, read-out: hNurr1_RXRaFL EC50
T1 construct: expressed in transfected cells; host or cells: Cos-7 cells
T1 sequence (P19793 whole entry, the tested form may be a part): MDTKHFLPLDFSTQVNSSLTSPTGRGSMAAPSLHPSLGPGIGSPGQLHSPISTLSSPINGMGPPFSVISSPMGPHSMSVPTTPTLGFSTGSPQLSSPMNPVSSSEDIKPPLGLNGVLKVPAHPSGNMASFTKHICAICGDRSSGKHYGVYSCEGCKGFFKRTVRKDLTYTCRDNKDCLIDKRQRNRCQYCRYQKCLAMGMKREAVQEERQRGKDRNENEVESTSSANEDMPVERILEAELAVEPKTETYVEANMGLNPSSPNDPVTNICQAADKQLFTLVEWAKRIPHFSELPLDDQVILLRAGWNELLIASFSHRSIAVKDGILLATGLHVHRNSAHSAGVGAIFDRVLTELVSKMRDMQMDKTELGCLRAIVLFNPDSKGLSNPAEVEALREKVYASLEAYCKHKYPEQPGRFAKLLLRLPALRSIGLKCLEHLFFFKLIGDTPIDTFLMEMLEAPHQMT
T1 sequence (P43354 whole entry partner, the tested form may be a part): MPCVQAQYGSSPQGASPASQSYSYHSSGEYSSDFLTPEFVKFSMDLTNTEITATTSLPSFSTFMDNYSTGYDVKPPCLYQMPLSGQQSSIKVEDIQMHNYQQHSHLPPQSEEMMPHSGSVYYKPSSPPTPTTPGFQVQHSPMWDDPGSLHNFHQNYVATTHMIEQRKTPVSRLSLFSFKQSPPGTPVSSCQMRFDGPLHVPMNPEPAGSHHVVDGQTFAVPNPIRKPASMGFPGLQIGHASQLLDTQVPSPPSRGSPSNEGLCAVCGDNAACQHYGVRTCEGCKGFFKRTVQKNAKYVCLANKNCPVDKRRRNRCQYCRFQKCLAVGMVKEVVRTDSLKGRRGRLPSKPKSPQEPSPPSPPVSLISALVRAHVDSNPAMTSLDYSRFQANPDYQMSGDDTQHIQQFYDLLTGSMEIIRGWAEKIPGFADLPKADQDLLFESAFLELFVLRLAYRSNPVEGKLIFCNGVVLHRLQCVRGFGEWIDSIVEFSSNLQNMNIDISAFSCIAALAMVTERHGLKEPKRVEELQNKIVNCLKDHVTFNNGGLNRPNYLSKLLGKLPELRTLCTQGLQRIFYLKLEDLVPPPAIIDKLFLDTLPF
T1 sequence (P04386 1-147 partner limits assumed): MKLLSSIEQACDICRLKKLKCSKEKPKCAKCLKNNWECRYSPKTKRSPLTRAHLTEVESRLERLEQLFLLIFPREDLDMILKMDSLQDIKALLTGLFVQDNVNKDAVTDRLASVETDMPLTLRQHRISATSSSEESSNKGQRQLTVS

[2] = target: T2, NURR-1/RXRγ (Homo sapiens, UniProt P48443); test: Transactivation test, NURR-1-Gal4/RXRγ, luciferase reporter in Cos-7 cells; type: cell-based; settings: for Emax: COS-7, induction level relative to reference XCT0135908 at 2×10^−5 M (=100%), read-out: hNurr1_RXRgFL Emax (%); for EC50: Cos-7 cells, NURR-1-Gal4/RXRγ, luciferase reporter, read-out: hNurr1_RXRgFL EC50
T2 construct: expressed in transfected cells; host or cells: Cos-7 cells
T2 sequence (P48443 whole entry, the tested form may be a part): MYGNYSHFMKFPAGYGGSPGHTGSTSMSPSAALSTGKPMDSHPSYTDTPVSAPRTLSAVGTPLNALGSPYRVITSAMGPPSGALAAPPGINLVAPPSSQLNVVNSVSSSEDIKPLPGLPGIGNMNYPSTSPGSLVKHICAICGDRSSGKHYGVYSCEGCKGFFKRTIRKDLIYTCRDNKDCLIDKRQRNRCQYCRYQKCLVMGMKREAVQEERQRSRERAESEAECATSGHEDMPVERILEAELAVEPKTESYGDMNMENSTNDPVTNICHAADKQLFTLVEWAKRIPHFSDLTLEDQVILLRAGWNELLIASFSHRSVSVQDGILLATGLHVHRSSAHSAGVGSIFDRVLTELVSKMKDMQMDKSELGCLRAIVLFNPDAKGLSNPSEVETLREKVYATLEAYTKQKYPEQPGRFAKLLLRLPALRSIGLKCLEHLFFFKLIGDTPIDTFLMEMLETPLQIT
T2 sequence (P43354 whole entry partner, the tested form may be a part): as the sequence (P43354 whole entry partner, the tested form may be a part) above
T2 sequence (P04386 1-147 partner limits assumed): as the sequence (P04386 1-147 partner limits assumed) above

[3] = induction level relative to reference XCT0135908 at 2×10^−5 M (=100%)

melting point [°C] | Emax [1] [%] | EC50 [1] [nM] | Emax [2] [%] | EC50 [2] [nM] | hNurr1_RXRaFL Emax (%) [1, 3] [%] | hNurr1_RXRgFL Emax (%) [2, 3] [%] | SMILES
140 | – | – | – | – | – | – | CC1(C)CN(c2cccc(N3CC(C(=O)O)C3)c2)c2ccc(Br)cc2O1 (as salt: sodium) [Example 222, sodium 1-[3-(7-bromo-2,2-dimethyl-3H-1,4-benzoxazin-4-yl)phenyl]azetidine-3-carbxoylate]
– | 115 | 19 | 94 | 27 | – | – | CC1(C)CN(c2cccc(N3CC(C(=O)O)C3)c2)c2ccc(Br)cc2O1 [Example 222, sodium 1-[3-(7-bromo-2,2-dimethyl-3H-1,4-benzoxazin-4-yl)phenyl]azetidine-3-carbxoylate]
– | – | 318 | – | 792 | 58 | 66 | CC(C)Cc1ccc2c(c1)OC(C)(C)CN2c1cccc(N2CC(C(=O)O)C2)c1 [Example 231, tert-butylammonium 1-[3-(7-isobutyl-2,2-dimethyl-3H-1,4-benzoxazin-4yl)phenyl]azetidine-3-carboxylate]
– | 117 | 4 | 124 | 4 | – | – | CN(C)CCOC(=O)C1CN(c2cccc(N3CC(C)(C)Oc4cc(C(F)(F)F)ccc43)c2)C1 [Example 272, 2-dimethylaminoethyl 1-[3-[2,2-dimethyl-7-(trifluomethyl)-3H-1,4-benzoxazin-4-yl]phenyl]azetidine-3-carboxylate]
– | 109 | 8 | 98 | 44 | – | – | CC1(C)CN(c2cccc(N3CC(C(=O)NCCO)C3)c2)c2ccc(C(F)(F)F)cc2O1 [Example 275, 1-[3-[2,2-dimethyl-7-(trifluoromethyl)-3H-1,4-benzoxazin-4-yl]phenyl]-N-(2-hydroxyethyl)azetidine-3-carboxamide]
– | 105 | 15 | 92 | 150 | – | – | CC1(C)CN(c2cccc(N3CC(C(=O)NC(CO)CO)C3)c2)c2ccc(C(F)(F)F)cc2O1 [Example 276, 1-[3-[2,2-dimethyl-7-(trifluoromethyl)-3H-1,4-benzoxazin-4-yl]phenyl]N-[2-hydroxy-1-(hydroxymethyl)ethyl]azetidine-3-carboxamide]
– | 103 | 19 | 97 | 52 | – | – | CC1(C)CN(c2cccc(N3CC(C(=O)NCC(O)CO)C3)c2)c2ccc(C(F)(F)F)cc2O1 (centres unmarked) [Example 277, N-(2,3-dihydroxypropyl)-1-[3-[2,2-dimethyl-7-(trifluoromethyl)-3H-1,4-benzoxazin-4-yl]phenyl]azetidine-3-carboxamide]
– | 110 | 29 | 117 | 74 | – | – | CC1(C)CN(c2cccc(N3CC(C(=O)NCCCO)C3)c2)c2ccc(C(F)(F)F)cc2O1 [Example 278, 1-[3-[2,2-dimethyl-7-(trifgluoromethyl)-3H-1,4-benzoxazin-4-yl]phenyl]-N-(3-hydroxypropyl)azetidine-3-carboxamide]
– | 95 | 375 | 79 | – | – | – | CN(C)CCNC(=O)C1CN(c2cccc(N3CC(C)(C)Oc4cc(C(F)(F)F)ccc43)c2)C1 [Example 279, N-3(2-dimethylaminoethyl)-1-[3-[2,2-dimethyl-7-(trifluoromethyl)-3H-1,4-benzoxazin-4-yl]phenyl]azetidine-3-carboxamide]

Second part, the molecule before the results:

SMILES | melting point [°C] | Emax [1] [%] | EC50 [1] [nM] | Emax [2] [%] | EC50 [2] [nM] | hNurr1_RXRaFL Emax (%) [1, 3] [%] | hNurr1_RXRgFL Emax (%) [2, 3] [%]
CCc1cc2c(c(-c3cccc(N4CC(C(=O)O)C4)c3)c1)NCC(C)(C)O2 (as salt: ammonium) [Example 207, tert-butylammonium 1-[3-(7-ethyl-2,2-dimethyl-3,4-dihydro-1,4-benzoxazin-5-yl)phenyl]azetidine-3-carboxylate] | 100 to 124 | – | – | – | – | – | –
CN1CC2(CCC2)Oc2cc(C(C)(C)C)cc(-c3cccc(N4CC(C(=O)O)C4)c3)c21 (as salt: ammonium) [Example 213, tert-butylammonium 1-[3-(7-tert-butyl-4-methyl-spiro[3H-1,4-benzoxazine-2,1′-cyclobutane]-5-yl)phenyl]azetidine-3-carboxylate] | 170 to 178 | – | – | – | – | – | –
CC1(C)CN(CC(F)(F)F)c2c(cc(C(F)(F)F)cc2-c2cccc(N3CC(C(=O)O)C3)c2)O1 (as salt: ammonium) [Example 215, tert-butylammonium 1-[3-[2,2-dimethyl-4 (2,2,2-trifluoromethyl)-7-(trifluoromethyl)-3H-1,4-benzoxazin-5-yl]phenyl]azetidine-3-carboxylate] | 148 to 154 | – | – | – | – | – | –
CC(C)Cc1ccc2c(c1)OC(C)(C)CN2c1cccc(N2CC(C(=O)O)C2)c1 (as salt: ammonium) [Example 231, tert-butylammonium 1-[3-(7-isobutyl-2,2-dimethyl-3H-1,4-benzoxazin-4yl)phenyl]azetidine-3-carboxylate] | 120 to 121 | – | – | – | – | – | –
CC(C)c1ccc2c(c1)CC(C)(C)CN2c1cccc(N2CC(C(=O)O)C2)c1 (as salt: ammonium) [Example 245, tert-butylammonium 1-[3-(6-isopropyl-3,3-dimethyl-2,4-dihydroquinolin-1-yl)phenyl]azetidine-3-carboxylate] | 165 to 177 | – | – | – | – | – | –
CC1(C)Oc2cc(C#N)ccc2N(c2cccc(N3CC(C(=O)O)C3)c2)C1=O (as salt: ammonium) [Example 254, tert-butylammonium 1-[3-(7-cyano-2,2-dimethyl-3-oxo-1,4-benzoxazin-4-yl)phenyl]azetidine-3-carboxylate] | 204 to 211 | – | – | – | – | – | –
O=C(O)C1CN(c2cccc(N3CC4(CCCC4)c4cc(Cl)ccc43)c2)C1 (as salt: ammonium) [Example 257, tert-butylammonium 1-[3-(5′-chlorospiro[cyclopentane-1,3′-indolin]-1′-yl)phenyl]azetidine-3-carboxyate] | 131 to 133 | – | – | – | – | – | –
CCC1(CC)C=C(c2cccc(N3CC(C(=O)O)C3)c2)c2ccc(C(F)(F)F)cc2O1 (as salt: ammonium) [Example 265] | 147 to 152 | – | – | – | – | – | –
CC1(C)CC(c2cccc(N3CC(C(=O)O)C3)c2)c2ccc(C(F)(F)F)cc2O1 (centres unmarked) (as salt: ammonium) [Example 270, tert-butylammonium 1-[3-[2,2-dimethyl-7-(trifluoromethyl)chroman-4-yl]phenyl]azetidine-3-carboxylate] | 116 to 122 | – | – | – | – | – | –
CCCc1ccc(C(C)C)cc1-c1cccc(N2CC(C(=O)O)C2)c1 (as salt: salt) [Example 195, piperazin-1-ium-1-[3-(5-isopropyl-2-propylphenyl)phenyl]azetidine-3-carboxylate] | 109 | – | – | – | – | – | –
CC(=O)NCCCNC(=O)C1CN(c2cccc(-n3cc(C)c4cc(C(F)(F)F)ccc43)c2)C1 [Example 182, N-(3-acetamidopropyl)-1-[3-[3-methyl-5-(trifluoromethyl)indol-1-yl]phenyl]azetidine-3-carboxylate] | – | 98 | 7 | 111 | 14 | – | –
Cc1cn(-c2cccc(N3CC(C(=O)NC4CCC(F)(F)CC4)C3)c2)c2ccc(C(F)(F)F)cc12 [Example 183, N-(4,4-difluorocyclophexyl)-1-[3-[3-5-(trifluoromethyl)indol-1-yl]phenyl]-azetidine-3-carboxamide] | – | 108 | 92 | 127 | 316 | – | –
CCCc1ccc(C(C)C)cc1-c1cccc(N2CC(C(=O)O)C2)c1 [Example 195, piperazin-1-ium-1-[3-(5-isopropyl-2-propylphenyl)phenyl]azetidine-3-carboxylate] | – | 105 | 7 | – | 116 | – | –
CN1CC2(CCC2)Oc2cc(C(F)(F)F)cc(-c3cccc(N4CC(C(=O)O)C4)c3)c21 [Example 203, sodium 1-[3-[4-methul-7-(trifluoromethyl)spiro[3H-1,4-benzoxazine-2,1′-cyclobutane]-5-yl]phenyl]azetidine-3-carboxylate] | – | 80 | 0.69 | 63 | 4 | – | –
CCc1cc2c(c(-c3cccc(N4CC(C(=O)O)C4)c3)c1)NCC(C)(C)O2 [Example 207, tert-butylammonium 1-[3-(7-ethyl-2,2-dimethyl-3,4-dihydro-1,4-benzoxazin-5-yl)phenyl]azetidine-3-carboxylate] | – | 112 | 15 | 103 | 16 | – | –
CC(C)Cc1ccc2c(c1)OC(C)(C)CN2c1cccc(N2CC(C(=O)O)C2)c1 [Example 230, 1-[3-(7-isobutyl-2,2-dimethyl-3H-1,4-benzoxazin-4yl)phenyl]azetidine-3-carboxylic acid] | – | 62 | 535 | 85 | 1000 | – | –
O=C(O)C1CN(c2cccc(N3CCOc4cc(C(F)(F)F)ncc43)c2)C1 [Example 240, sodium 1-[3-[7-(trifluoromethyl)-2,3-dihydropurido[4,3][1,4]oxazin-4-yl]phenyl]azetidine-3-carboxylate] | – | 98 | 1830 | 83 | 3260 | – | –
O=C(O)C1CN(c2cccc(N3CC4(CCCC4)c4cc(Cl)ccc43)c2)C1 [Example 257, tert-butylammonium 1-[3-(5′-chlorospiro[cyclopentane-1,3′-indolin]-1′-yl)phenyl]azetidine-3-carboxyate] | – | 103 | 23 | 89 | 59 | – | –
CCC1(CC)C=C(c2cccc(N3CC(C(=O)O)C3)c2)c2ccc(C(F)(F)F)cc2O1 [Example 265] | – | 79 | 3 | 79 | 8 | – | –
